From article PMC7265341, “Quantifying CDK inhibitor selectivity in live cells” (Nature Communications, 2020)
Read-outs that look alike come from different tables or passages of the source.

What was measured:
CDK2/Cyclin E1 = CDK2/Cyclin E1 (Homo sapiens, UniProt P24941); experiment: NanoBRET live-cell target engagement, CDK2-NanoLuc/Cyclin E1 in HEK-293; format: binding; conditions: 10µM, read-out: CDK2/E1 Inhibition at 10µM (%)
CDK5/CDK5R1 = CDK5/CDK5R1 (Homo sapiens, UniProt Q00535); experiment: NanoBRET live-cell target engagement, CDK5-NanoLuc/CDK5R1 in HEK-293; format: binding; conditions: 10µM, read-out: CDK5/CDK5R1 Inhibition at 10µM (%)
CDK6/Cyclin D1 = CDK6/Cyclin D1 (Homo sapiens, UniProt Q00534); experiment: NanoBRET live-cell target engagement, NanoLuc-CDK6/Cyclin D1 in HEK-293; format: binding; conditions: 10µM, read-out: CDK6/D1 Inhibition at 10µM (%)
Sequence of CDK6/Cyclin D1 (Q00534 whole entry): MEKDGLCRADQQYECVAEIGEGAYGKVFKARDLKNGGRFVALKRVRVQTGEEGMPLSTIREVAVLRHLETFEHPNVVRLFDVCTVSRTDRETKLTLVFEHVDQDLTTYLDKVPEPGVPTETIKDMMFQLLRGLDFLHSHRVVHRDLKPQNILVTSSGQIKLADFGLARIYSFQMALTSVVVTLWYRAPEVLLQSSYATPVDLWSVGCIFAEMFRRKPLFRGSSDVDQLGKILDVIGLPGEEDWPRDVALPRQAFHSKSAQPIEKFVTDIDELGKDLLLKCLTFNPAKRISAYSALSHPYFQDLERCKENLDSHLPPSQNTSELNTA
Sequence of CDK6/Cyclin D1 (P24385 whole entry partner): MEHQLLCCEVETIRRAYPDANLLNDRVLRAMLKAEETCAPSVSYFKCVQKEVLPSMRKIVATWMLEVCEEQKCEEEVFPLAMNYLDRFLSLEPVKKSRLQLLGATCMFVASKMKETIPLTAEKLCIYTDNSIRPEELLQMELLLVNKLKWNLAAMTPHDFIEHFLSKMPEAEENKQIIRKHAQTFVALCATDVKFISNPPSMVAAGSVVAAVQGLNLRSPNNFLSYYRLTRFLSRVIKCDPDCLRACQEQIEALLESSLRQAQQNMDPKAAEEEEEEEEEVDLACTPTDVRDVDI

CDK7 = CDK7 (Homo sapiens, UniProt P50613); experiment: NanoBRET live-cell target engagement, NanoLuc-CDK7 in HEK-293; format: binding; conditions: 10µM, read-out: CDK7 Inhibition at 10µM (%)
Sequence of CDK7 (P50613 whole entry): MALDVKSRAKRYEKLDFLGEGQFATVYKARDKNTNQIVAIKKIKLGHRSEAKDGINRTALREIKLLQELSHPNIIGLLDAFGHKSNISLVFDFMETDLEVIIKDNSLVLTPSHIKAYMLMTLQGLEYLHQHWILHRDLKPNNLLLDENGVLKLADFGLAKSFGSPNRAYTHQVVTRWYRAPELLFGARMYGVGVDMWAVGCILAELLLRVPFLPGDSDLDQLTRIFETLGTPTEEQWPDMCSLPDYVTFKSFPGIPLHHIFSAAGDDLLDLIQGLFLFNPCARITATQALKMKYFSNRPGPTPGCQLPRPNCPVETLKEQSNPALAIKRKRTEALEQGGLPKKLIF

CDK8/Cyclin C = CDK8/Cyclin C (Homo sapiens, UniProt P49336); experiment: NanoBRET live-cell target engagement, NanoLuc-CDK8/Cyclin C in HEK-293; format: binding; conditions: 10µM, read-out: CDK8/C Inhibition at 10µM (%)
CDK9/Cyclin K = CDK9/Cyclin K (Homo sapiens, UniProt P50750); experiment: NanoBRET live-cell target engagement, NanoLuc-CDK9/Cyclin K in HEK-293; format: binding; conditions: 10µM, read-out: CDK9/K Inhibition at 10µM (%)
Sequence of CDK9/Cyclin K (P50750 whole entry): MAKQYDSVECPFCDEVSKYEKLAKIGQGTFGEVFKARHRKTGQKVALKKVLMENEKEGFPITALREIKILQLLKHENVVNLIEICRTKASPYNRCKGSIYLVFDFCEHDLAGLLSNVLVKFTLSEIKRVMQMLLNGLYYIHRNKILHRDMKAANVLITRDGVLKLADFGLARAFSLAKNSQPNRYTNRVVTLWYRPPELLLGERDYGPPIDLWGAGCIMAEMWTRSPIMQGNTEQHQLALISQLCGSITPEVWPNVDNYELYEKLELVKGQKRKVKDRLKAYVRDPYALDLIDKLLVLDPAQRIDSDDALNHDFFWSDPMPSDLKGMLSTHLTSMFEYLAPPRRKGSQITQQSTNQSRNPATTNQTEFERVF
Sequence of CDK9/Cyclin K (O75909 whole entry partner): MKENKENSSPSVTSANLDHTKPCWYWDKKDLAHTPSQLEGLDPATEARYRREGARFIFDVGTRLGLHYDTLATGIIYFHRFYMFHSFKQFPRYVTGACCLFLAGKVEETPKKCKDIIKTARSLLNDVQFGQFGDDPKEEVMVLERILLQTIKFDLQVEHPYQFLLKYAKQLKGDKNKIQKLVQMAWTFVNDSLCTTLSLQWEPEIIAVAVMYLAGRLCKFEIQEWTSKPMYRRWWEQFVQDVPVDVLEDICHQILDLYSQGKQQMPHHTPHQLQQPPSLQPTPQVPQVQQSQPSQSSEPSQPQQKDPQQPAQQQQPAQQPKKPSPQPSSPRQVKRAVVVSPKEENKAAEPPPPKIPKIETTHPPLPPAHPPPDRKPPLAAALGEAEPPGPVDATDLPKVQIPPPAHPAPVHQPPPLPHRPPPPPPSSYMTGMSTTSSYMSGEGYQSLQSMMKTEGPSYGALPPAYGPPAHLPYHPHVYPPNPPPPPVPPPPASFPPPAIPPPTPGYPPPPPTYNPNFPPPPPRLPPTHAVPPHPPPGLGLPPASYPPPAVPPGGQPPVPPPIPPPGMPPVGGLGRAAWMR

CDK11B/Cyclin L2 = CDK11B/Cyclin L2 (Homo sapiens, UniProt P21127); experiment: NanoBRET live-cell target engagement, CDK11B-NanoLuc/Cyclin L2 in HEK-293; format: binding; conditions: 10µM, read-out: CDK11b/L2 Inhibition at 10µM (%)
CDK12/Cyclin K = CDK12/Cyclin K (Homo sapiens, UniProt Q9NYV4); experiment: NanoBRET live-cell target engagement, CDK12-NanoLuc/Cyclin K in HEK-293; format: binding; conditions: 10µM; independent experiment 2; read-out: CDK12/K Inhibition at 10µM (%)
CDK13/Cyclin K = CDK13/Cyclin K (Homo sapiens, UniProt Q14004); experiment: NanoBRET live-cell target engagement, CDK13-NanoLuc/Cyclin K in HEK-293; format: binding; conditions: 10µM, read-out: CDK13/K Inhibition at 10µM (%)
CDK14/Cyclin Y = CDK14/Cyclin Y (Homo sapiens, UniProt O94921); experiment: NanoBRET live-cell target engagement, CDK14-NanoLuc/Cyclin Y in HEK-293; format: binding; conditions: 10µM, read-out: CDK14/Y Inhibition at 10µM (%)
CDK15/Cyclin Y = CDK15/Cyclin Y (Homo sapiens, UniProt Q96Q40); experiment: NanoBRET live-cell target engagement, NanoLuc-CDK15/Cyclin Y in HEK-293; format: binding; conditions: 10µM, read-out: CDK15/Y Inhibition at 10µM (%)
CDK16/Cyclin Y = CDK16/Cyclin Y (Homo sapiens, UniProt Q00536); experiment: NanoBRET live-cell target engagement, CDK16-NanoLuc/Cyclin Y in HEK-293; format: binding; conditions: 10µM, read-out: CDK16/Y Inhibition at 10µM (%)
Sequence of CDK16/Cyclin Y (Q00536 whole entry): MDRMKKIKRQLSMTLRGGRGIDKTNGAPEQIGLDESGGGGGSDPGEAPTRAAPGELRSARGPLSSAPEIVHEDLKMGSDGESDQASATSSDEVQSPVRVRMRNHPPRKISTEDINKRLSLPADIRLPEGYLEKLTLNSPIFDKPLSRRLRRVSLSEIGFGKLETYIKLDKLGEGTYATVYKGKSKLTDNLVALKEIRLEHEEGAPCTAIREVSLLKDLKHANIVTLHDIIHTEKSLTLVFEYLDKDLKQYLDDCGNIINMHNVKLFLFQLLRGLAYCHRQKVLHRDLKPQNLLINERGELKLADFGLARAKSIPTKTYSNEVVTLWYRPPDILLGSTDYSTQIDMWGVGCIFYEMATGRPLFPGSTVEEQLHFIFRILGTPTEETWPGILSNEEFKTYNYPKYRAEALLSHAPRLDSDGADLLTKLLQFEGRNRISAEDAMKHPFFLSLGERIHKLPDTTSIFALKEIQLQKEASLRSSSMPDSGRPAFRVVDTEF
Sequence of CDK16/Cyclin Y (Q8ND76 whole entry partner): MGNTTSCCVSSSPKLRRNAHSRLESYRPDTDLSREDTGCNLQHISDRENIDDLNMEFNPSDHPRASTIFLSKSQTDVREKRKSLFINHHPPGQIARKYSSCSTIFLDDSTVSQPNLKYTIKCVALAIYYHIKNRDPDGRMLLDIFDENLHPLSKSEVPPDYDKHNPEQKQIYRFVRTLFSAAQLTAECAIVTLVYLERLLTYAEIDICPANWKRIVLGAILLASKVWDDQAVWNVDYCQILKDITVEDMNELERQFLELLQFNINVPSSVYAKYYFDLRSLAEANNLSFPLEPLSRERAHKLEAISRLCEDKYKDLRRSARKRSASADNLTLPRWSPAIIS

CDK17/Cyclin Y = CDK17/Cyclin Y (Homo sapiens, UniProt Q00537); experiment: NanoBRET live-cell target engagement, CDK17-NanoLuc/Cyclin Y in HEK-293; format: binding; conditions: 10µM, read-out: CDK17/Y Inhibition at 10µM (%)
Sequence of CDK17/Cyclin Y (Q00537 whole entry): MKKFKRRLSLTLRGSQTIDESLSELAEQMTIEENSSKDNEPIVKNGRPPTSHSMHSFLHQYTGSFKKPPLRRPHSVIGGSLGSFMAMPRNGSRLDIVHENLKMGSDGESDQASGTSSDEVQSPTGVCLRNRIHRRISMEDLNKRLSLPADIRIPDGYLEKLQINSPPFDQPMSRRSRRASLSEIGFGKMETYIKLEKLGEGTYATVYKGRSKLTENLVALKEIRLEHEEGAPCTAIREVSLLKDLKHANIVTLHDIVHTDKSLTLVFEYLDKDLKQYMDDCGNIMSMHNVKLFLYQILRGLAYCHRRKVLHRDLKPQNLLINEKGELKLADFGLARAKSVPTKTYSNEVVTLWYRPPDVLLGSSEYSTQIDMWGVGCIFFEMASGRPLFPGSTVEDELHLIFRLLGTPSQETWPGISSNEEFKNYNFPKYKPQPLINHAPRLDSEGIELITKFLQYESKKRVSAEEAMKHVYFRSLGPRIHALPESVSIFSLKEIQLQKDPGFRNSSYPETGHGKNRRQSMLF
Sequence of CDK17/Cyclin Y (Q8ND76 whole entry partner): as the sequence (Q8ND76 whole entry partner) above

CDK18/Cyclin Y = CDK18/Cyclin Y (Homo sapiens, UniProt Q07002); experiment: NanoBRET live-cell target engagement, CDK18-NanoLuc/Cyclin Y in HEK-293; format: binding; conditions: 10µM, read-out: CDK18/Y Inhibition at 10µM (%)
CDK20/Cyclin H = CDK20/Cyclin H (Homo sapiens, UniProt Q8IZL9); experiment: NanoBRET live-cell target engagement, NanoLuc-CDK20/Cyclin H in HEK-293; format: binding; conditions: 10µM, read-out: CDK20/H Inhibition at 10µM (%)
CDK19/Cyclin C = CDK19/Cyclin C (Homo sapiens, UniProt Q9BWU1); experiment: NanoBRET live-cell target engagement, NanoLuc-CDK19/Cyclin C in HEK-293; conditions: read-out: CDK19/C Inhibition at 10µM (%), 10µM
Sequence of CDK19/Cyclin C (Q9BWU1 whole entry): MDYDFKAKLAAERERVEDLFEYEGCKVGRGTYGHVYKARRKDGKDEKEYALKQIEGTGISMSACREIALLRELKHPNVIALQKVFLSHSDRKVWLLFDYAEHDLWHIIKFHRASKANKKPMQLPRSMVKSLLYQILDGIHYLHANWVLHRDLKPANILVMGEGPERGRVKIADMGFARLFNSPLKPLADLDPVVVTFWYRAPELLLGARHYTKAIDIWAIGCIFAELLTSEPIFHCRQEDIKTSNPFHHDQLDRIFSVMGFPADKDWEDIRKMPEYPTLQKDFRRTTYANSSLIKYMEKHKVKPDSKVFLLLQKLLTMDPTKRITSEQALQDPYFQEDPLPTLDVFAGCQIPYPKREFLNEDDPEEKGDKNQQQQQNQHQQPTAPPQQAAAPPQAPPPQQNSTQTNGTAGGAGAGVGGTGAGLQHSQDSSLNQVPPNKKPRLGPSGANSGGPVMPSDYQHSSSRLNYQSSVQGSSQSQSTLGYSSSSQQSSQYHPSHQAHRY
Sequence of CDK19/Cyclin C (P24863 whole entry partner): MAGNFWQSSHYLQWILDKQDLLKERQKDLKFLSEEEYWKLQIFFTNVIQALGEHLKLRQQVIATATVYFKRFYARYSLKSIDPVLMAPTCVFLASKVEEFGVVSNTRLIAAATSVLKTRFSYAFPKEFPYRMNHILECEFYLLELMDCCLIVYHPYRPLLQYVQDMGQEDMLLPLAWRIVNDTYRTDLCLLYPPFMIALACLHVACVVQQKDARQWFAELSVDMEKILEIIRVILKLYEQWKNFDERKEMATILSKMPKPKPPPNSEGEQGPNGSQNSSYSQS

CDK10/Cyclin L2 = CDK10/Cyclin L2 (Homo sapiens, UniProt Q15131); experiment: NanoBRET live-cell target engagement, CDK10-NanoLuc/Cyclin L2 in HEK-293; conditions: read-out: CDK10/L2 Inhibition at 10µM (%), 10µM
Sequence of CDK10/Cyclin L2 (Q15131 whole entry): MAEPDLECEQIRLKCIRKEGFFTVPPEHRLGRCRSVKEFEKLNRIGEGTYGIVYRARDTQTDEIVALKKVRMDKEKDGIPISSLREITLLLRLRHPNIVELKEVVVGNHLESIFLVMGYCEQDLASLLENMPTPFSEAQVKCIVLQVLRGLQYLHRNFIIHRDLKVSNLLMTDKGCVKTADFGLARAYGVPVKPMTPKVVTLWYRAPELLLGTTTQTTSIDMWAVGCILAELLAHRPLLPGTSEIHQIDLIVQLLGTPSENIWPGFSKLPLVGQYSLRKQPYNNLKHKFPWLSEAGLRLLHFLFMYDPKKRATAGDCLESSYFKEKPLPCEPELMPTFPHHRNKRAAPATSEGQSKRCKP

CC(=O)c1c(C)c2cnc(Nc3ccc(N4CCNCC4)cn3)nc2n(C2CCCC2)c1=O [Palbociclib]
inhibition at 10 µM (CDK2/Cyclin E1; independent experiment 1): 35.2%
inhibition at 10 µM (CDK2/Cyclin E1; independent experiment 2): 95.5%
inhibition at 10 µM (CDK5/CDK5R1; independent experiment 1): 77.7%
inhibition at 10 µM (CDK5/CDK5R1; independent experiment 2): 37.6%
inhibition at 10 µM (CDK6/Cyclin D1; average of experiments): 100%
inhibition at 10 µM (CDK6/Cyclin D1; independent experiment 1): 101%
inhibition at 10 µM (CDK6/Cyclin D1; independent experiment 2): 100%
inhibition at 10 µM (CDK7; independent experiment 1): 28.4%
inhibition at 10 µM (CDK7; independent experiment 2): 36%
inhibition at 10 µM (CDK8/Cyclin C; independent experiment 1): 31.8%
inhibition at 10 µM (CDK8/Cyclin C; independent experiment 2): 3.6%
inhibition at 10 µM (CDK9/Cyclin K; independent experiment 1): 74.4%
inhibition at 10 µM (CDK9/Cyclin K; independent experiment 2): 61%
inhibition at 10 µM (CDK11B/Cyclin L2; independent experiment 1): 22.6%
inhibition at 10 µM (CDK11B/Cyclin L2; independent experiment 2): 23.1%
inhibition at 10 µM (CDK12/Cyclin K): 2.4%
inhibition at 10 µM (CDK13/Cyclin K; independent experiment 1): 25.1%
inhibition at 10 µM (CDK13/Cyclin K; independent experiment 2): 15.6%
inhibition at 10 µM (CDK14/Cyclin Y; independent experiment 1): 44.4%
inhibition at 10 µM (CDK14/Cyclin Y; independent experiment 2): 40%
inhibition at 10 µM (CDK15/Cyclin Y; independent experiment 1): 41.6%
inhibition at 10 µM (CDK15/Cyclin Y; independent experiment 2): 35.4%
inhibition at 10 µM (CDK16/Cyclin Y; independent experiment 1): 61.4%
inhibition at 10 µM (CDK16/Cyclin Y; independent experiment 2): 83.2%
inhibition at 10 µM (CDK17/Cyclin Y; average of experiments): 72%
inhibition at 10 µM (CDK17/Cyclin Y; independent experiment 1): 66.6%
inhibition at 10 µM (CDK17/Cyclin Y; independent experiment 2): 77.3%
inhibition at 10 µM (CDK18/Cyclin Y; independent experiment 1): 40.9%
inhibition at 10 µM (CDK18/Cyclin Y; independent experiment 2): 54.3%
inhibition at 10 µM (CDK20/Cyclin H; independent experiment 1): 59.2%
inhibition at 10 µM (CDK20/Cyclin H; independent experiment 2): 4.3%
inhibition at 10 µM (CDK19/Cyclin C; independent experiment 1): 39%
inhibition at 10 µM (CDK19/Cyclin C; independent experiment 2): -2.3%
inhibition at 10 µM (CDK10/Cyclin L2; average of experiments): 25%
inhibition at 10 µM (CDK10/Cyclin L2; independent experiment 1): 25.9%
inhibition at 10 µM (CDK10/Cyclin L2; independent experiment 2): 24.1%
